Each structure is given as a SMILES string. pIC50: −log10 of the molar value.

For experiment [1], the system named is caspase-3 activation in A2780 P cells. As to the kind of experiment: Caspase-3 colourimetric assay, A2780 P. It is filed as cell-based, human. The following applies: 72 hr, IC50 and IC75, FIG. 20. The method, then: (§1) Both floating and attached cells were collected by centrifugation. Cells, at a density of 1.5×10^6 cells/ml were washed with PBS and then re-suspended in chilled cell lysis buffer (supplied in the Caspase-3 colourimetric assay kit, Calbiochem, UK). Cells were incubated on ice for 10 min and then centrifuged for 1 min at 10,000 g. The cytosolic fraction (supernatant) was collected into a fresh tube and 50 μl (2 mg/ml) of each protein sample was transferred to a 96 well plate and diluted with lysis buffer. A 50 μl aliquot of X2 reaction buffer, containing 10 mM DTT was added, followed by 5 μl of 4 mM DEVD-pNA substrate to give a final concentration of 200 μM. The plate was then incubated at 37° C. for 1-2 h. OD was determined at 400 nm using an Anthos HT-II microtitreplate reader. The fold increase in caspase-3 and -9 activities was determined by comparing results to that obtained with un-induced control.

Experiment [2] has as its system caspase-3 activation in A2780 cisR cells. Kind of experiment: Caspase-3 colourimetric assay, A2780 cisR. The following applies: 72 hr, IC50 and IC75, FIG. 21. The class given is cell-based, human. As to the method: as §1
Experiment [3] deals with caspase-9 activation in A2780 P cells. Kind of experiment: Caspase-9 assay, A2780 P. The class given is cell-based, human. The following applies: 72 hr, IC50 and IC75, FIG. 22. As to the method: as §1
Experiment [4] relates to caspase-9 activation in A2780 cisR cells. Kind of experiment: Caspase-9 assay, A2780 cisR. The class given is cell-based, human. The following applies: 72 hr, IC50 and IC75, FIG. 23. As to the method: as §1
A further experiment has as its target T1, HDAC1 (Homo sapiens, UniProt Q13547).
T1 construct: purchased Cayman Chemicals, Ann Arbor, USA
Kind of experiment: Cayman HDAC1 Inhibitor Screening Assay Kit (fluorescence). It is filed as biochemical. As to the method:
The assay provides a fast two-step fluorescence-based method for measuring HDAC activity. Briefly, in the first step an acetylated lysine residue was incubated with HDAC1 and potential inhibitors. Deacetylation sensitises the substrate so that treatment with the HDAC developer in the second step releases a fluorescent product. The fluorescent reaction product was analysed using a plate reader with an excitation wavelengths of 350 nm and emission wavelengths of 460 nm.

For experiment [5], the system named is closed circular supercoiled pUC19 plasmid DNA. Kind of experiment: DNA unwinding, agarose gel mobility shift assay. The class given is binding. Conditions: 37° C., 48 h, range of concentrations. As to the method:
Platinum compounds, such as cisplatin, that unwind the DNA duplex reduces the number of supercoils in closed circular DNA so that their number decreases. This decrease upon binding of unwinding agents causes a decrease in the rate of migration of DNA through agarose gel. Unwinding of closed circular supercoiled pUC19 plasmid DNA incubated with cis-[Pt^II(NH3)2(malSAHA−2H)] was assayed by an agarose gel mobility shift assay. Samples of plasmid DNA were incubated with platinum complexes at 37° C. in the dark for 48 h. All samples were subjected to electrophoresis on 1% native agarose gel running at 25° C. with TAE buffer and the voltage set at 25 V. The gels were then stained with EtBr, followed by photography with transilluminator.^16

For experiment [6], the system named is DNA in CH1 cells (lymphoma). As to the kind of experiment: Pt binding to DNA in cultured cells (ICP-MS), CH1. The class given is cell-based. The following applies: 43 μM of Pt complexes, 2 hours of cell treatment. As to the method: Pt DNA binding of Pt complexes was measured in SW480 cells (colon cancer) and CH1 cells (lymphoma) or alternatively A2780 P and A2780 cisR cells (sensitive and resistant to cisplatin respectively). The cells were seeded in 60 mm tissue culture dishes with 10 ml of their respective medium. After overnight incubation the medium was removed and replaced with 10 ml of the respective medium containing a platinum complex giving a final concentration of 43 or 40 μM depending on the experiment. The cells were incubated with a given Pt complex for either 2 or 4 h depending on the experiment. The cells were trypsinised and centrifuged. The supernantant was removed and the cells washed twice with 1×PBS and centrifuged. The pellet was re-suspended in DNA buffer to which Proteinase K (20 mg/mL) and 10% SDS were added. After a gentle shake and incubation at 45° C. for two hours, RNAse (100 mg/mL) was added and the cells were incubated at 37° C. overnight. The volume of supernatant was noted and an equal volume of phenol was added.
The resulting mixture was shook for 10 min, then centrifuged for 10 min at 10° C. The supernatant was transferred into a new centrifuge tube (15 ml) and the volume was noted. […] The absorbance of the DNA by was measured by UV spectrophotometry at 260 nm and 280 nm and the concentration of DNA calculated. Platinum bound to DNA was determined by ICP-MS.

T1 sequence (Q13547 whole entry): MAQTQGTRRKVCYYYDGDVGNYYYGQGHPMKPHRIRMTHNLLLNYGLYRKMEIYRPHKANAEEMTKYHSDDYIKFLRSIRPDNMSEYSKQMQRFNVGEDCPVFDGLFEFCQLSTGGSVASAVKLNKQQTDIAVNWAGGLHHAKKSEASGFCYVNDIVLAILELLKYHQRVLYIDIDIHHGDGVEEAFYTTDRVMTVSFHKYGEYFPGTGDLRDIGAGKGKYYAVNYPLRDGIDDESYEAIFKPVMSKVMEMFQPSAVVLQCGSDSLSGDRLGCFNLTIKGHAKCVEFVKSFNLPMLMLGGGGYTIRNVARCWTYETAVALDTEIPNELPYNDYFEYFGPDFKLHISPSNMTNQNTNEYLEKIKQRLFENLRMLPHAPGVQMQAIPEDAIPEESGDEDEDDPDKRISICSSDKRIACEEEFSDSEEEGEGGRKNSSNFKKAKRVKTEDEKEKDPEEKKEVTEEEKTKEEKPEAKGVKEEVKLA

For the molecule `[NH2][Pt]1([NH2])[O]C(=O)C(Cc2ccc(NS(=O)(=O)c3ccc(/C=C/C(=O)NO)cc3)cc2)C(=O)[O]1` [cis-[Pt(NH3)2(malBel−2H)], cis-[Pt(NH3)2(malBel−2H)].1.5H2O], the caspase-3 activity result in experiment [1] was “an increase in both Caspase-3 and -9 activities”; in experiment [2], “an increase in both Caspase-3 and -9 activities”. In addition, the caspase-9 activity entry in experiment [3] is “an increase in both Caspase-3 and -9 activities”; in experiment [4], “an increase in both Caspase-3 and -9 activities”.
In general, pIC50 refers to the IC50 on a negative log10 scale, so that one unit is a factor of ten. With `[NH2][Pt]1([NH2])[O]C(=O)C(Cc2ccc(NC(=O)CCCCCCC(=O)NO)cc2)C(=O)[O]1` [cis-[Pt(NH3)2(malSAHA−2H)], cis-[Pt(NH3)2(malSAHA−2H)].3H2O], the “inhibition of HDAC1 (in words)” value on HDAC1 was “inhibit HDAC1”. For the same molecule, the pIC50 at HDAC1 (read-out: IC50 against HDAC I at 200 μM, at 200 μM) is 5.94. The “unwinding of negatively supercoiled pUC19 plasmid DNA (DNA binding)” value in experiment [5] is on record as “can induce unwinding in negatively supercoiled pUC19 plasmid DNA”.
As for `N.N.[Cl][Pt][Cl]` [cisplatin, cis-[Pt^II(NH3)2Cl2], reference compound], in experiment [6], the “DNA-bound Pt in CH1” value is given as 10.5 · 10^−15 moles of Pt/μg of DNA.

Values taken from patent publication US8901337B2, “Metal complexes having dual histone deacetylase inhibitory and DNA-binding activity” (Royal College of Surgeons in Ireland, priority 2009, dated 2014).
